Data as given in patent publication US4189426A, “Recombinant hormonal compositions and method” (Hoffmann-La Roche, Inc., priority 1978, dated 1980).
Like-named read-outs stand apart in the source and are kept apart here. Starred links: 1 amine or outer side, 2 acyl side, 3 side chain; linkers in the order of their positions; H or OH if unused. Non-standard residues stand in square brackets, D forms with d. No end group written: not given here. Cys(Cam) = carboxamidomethylated cysteine, NC(=O)CSC[C@H](N[*:1])C(=O)[*:2]

Assays:
rat tibia = rat tibia test (growth-promoting activity); type: in vivo; conditions: for Response (tibia width): mean ± SEM; for Response (tibia width) / Rat tibia assay Response (tibia width): four animals; for Relative potency to HGH: Tables 5 and 8; for Response (rat tibia test): Table 7, total dose of 600 μg in 4 days, means ± S.E., four test animals; for Rat tibia assay Response (tibia width): Table 1, mean ± standard error; for growth-promoting activity, result in words: rat tibia test
Description: The growth-promoting activity of PL-HGH, the unpurified recombinant of Example 1 (fraction IV), [Cys(Cam)^53 -HGH-(1-134)], [Cys(Cam)^165, 182, 189 -HGH-(141-191)] and saline control were determined by the rat tibia test of Greenspan et al, Endocrinology 45, 455 (1949) and by the local crop-sac assay in the pigeon according to Lyons, Proc. Soc. Exp. Biol. 35, 645 (1937) and Nicoll, Endocrinology 80, 641 (1967).
(§1) Plasmin fragments of reduced-carboxamidomethylation HGH and HCS were obtained as described above. Exclusion chromatography of the reaction mixture was performed at 22° C. on a Sephadex G-100 column (1.5×60 cm) in 0.01 M NH4 HCO3 of pH 8.4. For radioimmunoassay, the double-antibody procedure using a guinea pig antiserum to native HGH was performed. The growth-promoting activity was determined by the rat tibia test.

pigeon crop-sac = assay: local crop-sac assay in the pigeon (prolactin / lactogenic activity); type: in vivo; conditions: for Dry mucosal weight: Table 4, pigeon crop-sac test; for Dry mucosal weight / Pigeon crop-sac assay Response (dry mucosal weight): mean ± standard error; for Pigeon crop-sac assay Response (dry mucosal weight): Table 1, four birds; for Response (dry mucosal weight): Table 10, mean ± SEM, number of birds in parentheses
Description: The growth-promoting activity of PL-HGH, the unpurified recombinant of Example 1 (fraction IV), [Cys(Cam)^53 -HGH-(1-134)], [Cys(Cam)^165, 182, 189 -HGH-(141-191)] and saline control were determined by the rat tibia test of Greenspan et al, Endocrinology 45, 455 (1949) and by the local crop-sac assay in the pigeon according to Lyons, Proc. Soc. Exp. Biol. 35, 645 (1937) and Nicoll, Endocrinology 80, 641 (1967). Amino acid compositions of acid and carboxypeptidase hydrolysates were determined in an automatic amino acid analyzer (model 120B, Beckman Instruments). For the analysis of tryptophan, the methanesulfonic acid hydrolysates were used. Amino-terminal residue and sequence analyses were preformed by the dansyl-Edman procedure. Isoelectric focusing was carried out in 8 M urea. Prolactin activity was estimated by the pigeon crop-sac assay. Microcomplement fixation experiments were performed with rabbit antisera to HCS. The gel-double-diffusion technique of Ouchterlony was done using 1% agar in 0.01 M phosphate buffer of pH 7.5. Exclusion chromatography of the purified fragments or the recombinant was performed on a Sephadex G-100 column (1.5×60 cm; V0 =35 ml) in 10 mM NH4 HCO3 (pH 8.4) at 21°. Circular dichroism (CD) spectra were obtained by a spectropolarimeter (Cary model 60) equipped with a circular dichroism attachment (model 6002). Microcomplement fixation was performed with the guinea pig antiserum to ovine prolactin. The gel double-diffusion technique of Ouchterlony was carried out with 1% agar in 10 mM phosphate buffer (pH 7.5). The prolactin activity was estimated by the local crop-sac assay in the pigeon.

antisera to HCS = assay: gel double-diffusion technique of Ouchterlony; type: binding, rabbit; conditions: HCS 10 μg, small fragment 40 μg
Description: (§2) Amino acid compositions of acid and carboxypeptidase hydrolysates were determined in an automatic amino acid analyzer (model 120B, Beckman Instruments). For the analysis of tryptophan, the methanesulfonic acid hydrolysates were used. Amino-terminal residue and sequence analyses were preformed by the dansyl-Edman procedure. Isoelectric focusing was carried out in 8 M urea. Prolactin activity was estimated by the pigeon crop-sac assay. Microcomplement fixation experiments were performed with rabbit antisera to HCS. The gel-double-diffusion technique of Ouchterlony was done using 1% agar in 0.01 M phosphate buffer of pH 7.5.

rabbit antisera to HCS = assay: microcomplement fixation; type: binding; conditions: antiserum to HCS at a dilution of 1:5500; HCS at 10 ng
Description: as §2

[1] = tested on: guinea pig antiserum to native HGH; assay: radioimmunoassay, double-antibody procedure; type: binding
Description: as §1

antiserum to prolactin = assay: gel double-diffusion technique of Ouchterlony; type: binding
Description: (§3) Exclusion chromatography of the purified fragments or the recombinant was performed on a Sephadex G-100 column (1.5×60 cm; V0 =35 ml) in 10 mM NH4 HCO3 (pH 8.4) at 21°. Circular dichroism (CD) spectra were obtained by a spectropolarimeter (Cary model 60) equipped with a circular dichroism attachment (model 6002). Microcomplement fixation was performed with the guinea pig antiserum to ovine prolactin. The gel double-diffusion technique of Ouchterlony was carried out with 1% agar in 10 mM phosphate buffer (pH 7.5). The prolactin activity was estimated by the local crop-sac assay in the pigeon.

[2] = tested on: guinea pig antiserum to ovine prolactin; assay: microcomplement fixation; type: binding; conditions: guinea pig antiserum to ovine prolactin at a dilution of 1:5000; 10 ng of the antigen
Description: as §3

## [Cys(Cam)^ 53 ]-HGH(1-134) + [Nle^170, Ala^165, 182, 189 ]-HGH(140-191) [Recombinant III]
Rat tibia; Table 8, total dose 20 μg
  Response (tibia width): 249.2 ± 9.2 micrometers
Rat tibia; Table 8, total dose 60 μg
  Response (tibia width): 286.0 ± 2.1 micrometers
Rat tibia; rat tibia assay
  Relative potency to HGH: 100%

## [Lys^135,136,138, Glu^137,139, Nle^170,Ala^165,182,189 ]-HGH-(135-191)
Rat tibia
  Response (rat tibia test): 192 ± 3.5 microns

## Cys (Cam)^53 -HCS-(1-133) [N]
Pigeon crop-sac; total dose 40 (mg)
  Dry mucosal weight: 11.2 ± 0.7 mg
Pigeon crop-sac; total dose 120 (mg)
  Dry mucosal weight: 12.0 ± 0.9 mg
Pigeon crop-sac; pigeon crop-sac assay
  prolactin (lactogenic) activity, result in words: may have low activity but is much less than the native hormone
Rat tibia; Table 5, total dose 300 μg
  Response (tibia width): 185.5 ± 1.7 micrometers
Antisera to HCS
  precipitin reaction: weak precipitin line which showed non-identity with the native hormone
Rabbit antisera to HCS
  complement fixed: less than 10%

## [Cys(Cam)^53 ]-HGH(1-134) + [Nle^170, Ala^165, 182, 189 ]-HGH(145-191) [Recombinant IV]
Rat tibia; Table 8, total dose 20 μg
  Response (tibia width): 248.5 ± 7.7 micrometers
Rat tibia; Table 8, total dose 60 μg
  Response (tibia width): 297.2 ± 10.0 micrometers
Rat tibia; rat tibia assay
  Relative potency to HGH: 113%

## [Nle^170, Ala^165,182,189 ]-HGH-(145-191)
Rat tibia
  Response (rat tibia test): 189.5 ± 7.5 microns

## Cys(Cam)^165, 182, 189, -HCS-141-191
Pigeon crop-sac; total dose 120 (mg)
  Dry mucosal weight: 6.5 ± 1.4 mg
Antisera to HCS
  precipitin reaction: failed to give a precipitin reaction
Rabbit antisera to HCS
  complement fixed: less than 10%

## [Nle^170, Ala^165,182,189 ]-HGH-(140-191)
Rat tibia
  Response (rat tibia test): 197 ± 4.2 microns

## Cys(Cam)^165,182,189 -HGH-(141-191) (QTYSKFDTNSHNDDALLKNYGLLY[Cys(Cam)]FRKDMDKVETFLRIVQ[Cys(Cam)]RSVEGS[Cys(Cam)]GF; UniProt P01241 167-217, looked up, fragment) [COOH-terminal plasmin fragment of reduced-carboxamidomethylated HGH, reference compound]
Pigeon crop-sac; total dose 20.3 nmol
  Pigeon crop-sac assay Response (dry mucosal weight): 13.4 ± 1.2 mg
Pigeon crop-sac; pigeon crop-sac assay
  prolactin (lactogenic) activity, result in words: only a very small fraction of the comparative biological activities of the native human growth hormone
Rat tibia; total dose 9.78 nmol
  Rat tibia assay Response (tibia width): 186.7 ± 4.4 micra
Rat tibia
  Response (rat tibia test): 212 ± 7.3 microns
Rat tibia; 182, 189 HGH-(141-191)]
  growth-promoting activity, result in words: only a very small fraction of the comparative biological activities of the native human growth hormone
Rat tibia; listed as the 51 residue fragment
  growth-promoting activity, result in words: about nil

## [Cys(Cam)HCS-(1-133)] + [Recombinant II, [Cys(Cam)HCS-(1-133)] + [Cys(Cam)^165,182,189 -HGH-(141-191)]]
Rat tibia; Table 5, total dose 30 μg
  Response (tibia width): 218.5 ± 9.8 micrometers
Rat tibia; Table 5, total dose 90 μg
  Response (tibia width): 229.0 ± 4.1 micrometers
Rat tibia; rat tibia assay
  Relative potency to HGH: 10%
Rat tibia
  growth-promoting activity, result in words: less active in comparison with that of I
Rat tibia; listed as recombinant of Cys(Cam)^53 -HCS-(1-133) and Cys(Cam)^165, 182, 189 -HGH-(141-191)
  growth-promoting activity, result in words: measurable growth promoting activity but at a reduced level of potency than the aforesaid recombinants
[1]
  antigen concentration needed to give the same degree of inhibition, relative to HGH: at least 30 times
  radioimmunoassay inhibition / cross-reaction compared with HGH, in words: much less effective than HGH

## human growth hormone [HGH]
Rat tibia; Table 5, total dose 20 μg
  Response (tibia width): 242.8 ± 3.8 micrometers
Rat tibia; Table 5, total dose 60 μg
  Response (tibia width): 282.8 ± 1.5 micrometers
Rat tibia; Table 8, total dose 20 μg
  Response (tibia width): 245.0 ± 9.5 micrometers
Rat tibia; Table 8, total dose 60 μg
  Response (tibia width): 290.2 ± 2.9 micrometers

## [Cys(Cam)^53 -HGH(1-134)] + [Recombinant I, [Cys(Cam)^53 -HGH(1-134)] + [Cys(Cam^165,182,189 -HCS-(141-191)]]
Rat tibia; Table 5, total dose 20 μg
  Response (tibia width): 212.0 ± 4.7 micrometers
Rat tibia; Table 5, total dose 60 μg
  Response (tibia width): 259.2 ± 2.9 micrometers
Rat tibia; rat tibia assay, Table 5
  Relative potency to Cys(Cam)^53 HGH-(1-134): 491%
Rat tibia; rat tibia assay
  Relative potency to HGH: 50%
Rat tibia
  growth-promoting activity, result in words: significant growth-promoting activity
[1]
  radioimmunoassay inhibition / cross-reaction compared with HGH, in words: at low concentrations gave nearly identical inhibition to that of HGH
[1]; listed as recombinant of Cys (Cam)^53 -HGH-(1-134) and Cys (Cam)^165, 182, 189 -HCS-(141-1)
  radioimmunoassay inhibition / cross-reaction compared with HGH, in words: nearly full immunoreactivity against the antiserum to HGH

## Cys(Cam)^53 -HGH-(1-134) [reference compound]
Pigeon crop-sac; total dose 0.65 nmol
  Pigeon crop-sac assay Response (dry mucosal weight): 9.6 ± 1.8 mg
Pigeon crop-sac; total dose 1.95 nmol
  Pigeon crop-sac assay Response (dry mucosal weight): 12.4 ± 2.7 mg
Pigeon crop-sac; pigeon crop-sac assay
  prolactin (lactogenic) activity, result in words: only a very small fraction of the comparative biological activities of the native human growth hormone
Pigeon crop-sac; pigeon crop-sac assay, Tables 1 and 2
  Relative potency to PLHGH: less than 1%
Rat tibia; total dose 3.26 nmol
  Rat tibia assay Response (tibia width): 207.2 ± 1.5 micra
Rat tibia; total dose 9.78 nmol
  Rat tibia assay Response (tibia width): 235.5 ± 1.5 micra
Rat tibia; Table 5, total dose 150 μg
  Response (tibia width): 231.2 ± 1.6 micrometers
Rat tibia; Table 5, total dose 450 μg
  Response (tibia width): 275.0 ± 3.8 micrometers
Rat tibia; rat tibia assay, Tables 1 and 2
  Relative potency to PLHGH: 8%
Rat tibia
  growth-promoting activity, result in words: only a very small fraction of the comparative biological activities of the native human growth hormone
[1]
  radioimmunoassay inhibition / cross-reaction compared with HGH, in words: only a slight cross-reaction

B1: Prolactin: prolactin isolated from sheep pituitary glands (protein, UniProt P01240 31-229, looked up)
Prolactin: TPVCPNGPGNCQVSLRDLFDRAVMVSHYIHNLSSEMFNEFDKRYAQGKGFITMALNSCHTSSLPTPEDKEQAQQTHHEVLMSLILGLLRSWNDPLYHLVTEVRGMKGVPDAILSRAIEIEEENKRLLEGMEMIFGQVIPGAKETEPYPVWSGLPSLQTKDEDARHSAFYNLLHCLRRDSSKIDTYLKLLNCRIIYNNNC
Pigeon crop-sac; total dose 2 μg
  Response (dry mucosal weight): 20.5 ± 0.9 mg
Pigeon crop-sac; total dose 6 μg
  Response (dry mucosal weight): 45.2 ± 3.1 mg
Antiserum to prolactin
  precipitin line: single precipitin line
[2]
  complement fixed: 98%

B2: human chorionic somatomammotropin (protein, UniProt P0DML2 27-217, looked up)
Chorionic somatomammotropin …: VQTVPLSRLFDHAMLQAHRAHQLAIDTYQEFEETYIPKDQKYSFLHDSQTSFCFSDSIPTPSNMEETQQKSNLELLRISLLLIESWLEPVRFLRSMFANNLVYDTSDSDDYHLLKDLEEGIQTLMGRLEDGSRRTGQILKQTYSKFDTNSHNHDALLKNYGLLYCFRKDMDKVETFLRMVQCRSVEGSCGF
notes: native human choriomammotropin hormone
Pigeon crop-sac; total dose 4 (mg)
  Dry mucosal weight: 24.2 ± 2.9 mg
Pigeon crop-sac; total dose 12 (mg)
  Dry mucosal weight: 30.5 ± 3.7 mg
Antisera to HCS
  precipitin reaction: single sharp precipitin line
Rabbit antisera to HCS
  complement fixed: about 90%
